The subject of one data set is MDR1. As to the kind of experiment: MDCK-MDR1 permeability assay (BBB penetration potential). The note with it: dog; for Papp A→B at 120 min, 5 μM / Papp B→A at 120 min, 5 μM: MDCK-MDR1, pH 7.4. It counts as in vitro ADME. Here is the method:
(§1) Each determination is performed in duplicate. […] Analytical conditions are outlined below.
(§2) Papp=(dCr/dt)×Vr/(A×CA) (1)

The test system of data set [1] is MDR1-MDCK cell monolayers. The description is as above. It counts as in vitro ADME. The note with it: 5 μM, 120 minutes; for MDCK-MDR1: % Recov A-B / MDCK-MDR1: % Recov B-A: pH 7.4. The method, then:
as §1, §2

[2] abbreviates: MDCK-MDR1, pH 7.4, Papp (B-to-A)/Papp (A-to-B), read-out: MDCK-MDR1: Efflux.

Like-named read-outs stand apart in the source and are kept apart here.

What is called Papp A→B is the apparent permeability from the apical to the basolateral side of a cell layer. Read a high Papp A→B as ready permeation. As usually defined, the Papp B→A is the apparent permeability from the basolateral to the apical side of a cell layer.

As for `CN(c1nnc(-c2cc(F)c(-c3cn[nH]c3)cc2O)s1)[C@H]1C[C@@H]2CC[C@H]([C@H]1F)N2C` (racemic) [24A/24B, 4-fluoro-2-(5-{[(1S,2S,3R,5R)-2-fluoro-8-methyl-8-azabicyclo[3.2.1]octan-3-yl](methyl)amino}-1,3,4-thiadiazol-2-yl)-5-(1H-pyrazol-4-yl)phenol and 4-fluoro-2-(5-{[(1R,2R,3S,5S)-2-fluoro-8-methyl-8-azabicyclo[3.2.1]octan-3-yl](methyl)amino}-1,3,4-thiadiazol-2-yl)-5-(1H-pyrazol-4-yl)phenol], in the data set with MDR1 (MDCK-MDR1, pH 7.4, Papp (B-to-A)/Papp (A-to-B), 5 μM, 120 minutes, separated enantiomers, told apart by chiral retention time, read-out: MDCK MDRP1 Efflux Ratio), the efflux ratio at 120 min, 5 μM is 6. Further, the “MDCK MDRP1 Efflux Ratio” value in data set [1] (Papp (B-to-A)/Papp (A-to-B), separated enantiomers, told apart by chiral retention time) is 7.

Take `CN(c1nnc(-c2ccc(-c3ccn(C)c(=O)c3)cc2O)s1)[C@@H]1C[C@H]2CC[C@H](N2)[C@@H]1F` (single isomer, unassigned) [Compound E-4A]: in the data set on MDR1 (setting [2]), the efflux ratio at 120 min, 5 μM is 54. In the data set with MDR1 (5 μM, 120 minutes), this compound registered a Papp A→B at 120 min, 5 μM of 1.03 ×10⁻⁶ cm/s and a Papp B→A at 120 min, 5 μM of 55.9 ×10⁻⁶ cm/s. In data set [1], the “MDCK-MDR1: % Recov A-B” value is 93% and the “MDCK-MDR1: % Recov B-A” value was 101%.

`CN(c1nnc(-c2ccc(-c3ccn(C)c(=O)c3)cc2O)s1)[C@H]1C[C@@H]2CC[C@@H](N2)[C@H]1F` (single isomer, unassigned) [Compound E-4B]: the efflux ratio at 120 min, 5 μM in the data set on MDR1 (setting [2]) was determined as 40. In the data set on MDR1 (5 μM, 120 minutes), this compound displayed a Papp A→B at 120 min, 5 μM of 1.81 ×10⁻⁶ cm/s and a Papp B→A at 120 min, 5 μM of 71.4 ×10⁻⁶ cm/s. Besides, in data set [1], the “MDCK-MDR1: % Recov A-B” value is given as 115% and the “MDCK-MDR1: % Recov B-A” value turned out to be 125%.

For `COc1cc(-c2ccc(-c3nnc(N(C)[C@H]4C[C@@H]5CC[C@@H](N5)[C@H]4F)s3)c(O)c2)ncn1` (single isomer, unassigned) [Compound E-5B], in the data set on MDR1 (setting [2]), the efflux ratio at 120 min, 5 μM came out at 2. Also, in the data set with MDR1 (5 μM, 120 minutes), the Papp A→B at 120 min, 5 μM came to 6.59 ×10⁻⁶ cm/s and the Papp B→A at 120 min, 5 μM came to 9.86 ×10⁻⁶ cm/s. Moreover, in data set [1], the “MDCK-MDR1: % Recov A-B” value is 37% and the “MDCK-MDR1: % Recov B-A” value came out at 58%.

Turning to `CN(c1nnc(-c2cc(F)c(-c3cn[nH]c3)cc2O)s1)[C@@H]1C[C@H]2CC[C@H](N2)[C@@H]1F` (single isomer, unassigned) [Compound E-6A], the efflux ratio at 120 min, 5 μM in the data set with MDR1 (setting [2]) was 15. In the data set on MDR1 (5 μM, 120 minutes), this compound came in with a Papp A→B at 120 min, 5 μM of 2.33 ×10⁻⁶ cm/s and a Papp B→A at 120 min, 5 μM of 35.2 ×10⁻⁶ cm/s. In addition, in data set [1], the “MDCK-MDR1: % Recov A-B” value is 59% and the “MDCK-MDR1: % Recov B-A” value amounted to 80%.

For the compound `CN(c1nnc(-c2ccc(-c3cn[nH]c3)cc2O)s1)[C@H]1C[C@@H]2CC[C@@H](N2)[C@H]1F` (single isomer, unassigned) [Compound E-7A], the efflux ratio at 120 min, 5 μM in the data set with MDR1 (setting [2]) worked out at 12. Also, in the data set with MDR1 (5 μM, 120 minutes), the Papp A→B at 120 min, 5 μM came out at 5.22 ×10⁻⁶ cm/s and the Papp B→A at 120 min, 5 μM worked out at 60.6 ×10⁻⁶ cm/s. In data set [1], the “MDCK-MDR1: % Recov A-B” value was determined as 99% and the “MDCK-MDR1: % Recov B-A” value came out at 102%.

Turning to `CN(c1nnc(-c2ccc(-c3cc(=O)n(C)cn3)cc2O)s1)[C@@H]1C[C@H]2CC[C@H](N2)[C@@H]1F` (single isomer, unassigned) [Compound E-8A], the efflux ratio at 120 min, 5 μM in the data set with MDR1 (setting [2]) worked out at 21. For the same compound, in the data set on MDR1 (5 μM, 120 minutes), the Papp A→B at 120 min, 5 μM came to 1.31 ×10⁻⁶ cm/s and the Papp B→A at 120 min, 5 μM is 27.8 ×10⁻⁶ cm/s. Further, in data set [1], the “MDCK-MDR1: % Recov A-B” value is on record as 116% and the “MDCK-MDR1: % Recov B-A” value was 114%.

As for `CN(c1nnc(-c2ccc(-c3cc(=O)n(C)cn3)cc2O)s1)[C@H]1C[C@@H]2CC[C@@H](N2)[C@H]1F` (single isomer, unassigned) [Compound E-8B], the efflux ratio at 120 min, 5 μM in the data set on MDR1 (setting [2]) was determined as 31. In the data set with MDR1 (5 μM, 120 minutes), this compound had a Papp A→B at 120 min, 5 μM of 0.66 ×10⁻⁶ cm/s and a Papp B→A at 120 min, 5 μM of 20.6 ×10⁻⁶ cm/s. Further, in data set [1], the “MDCK-MDR1: % Recov A-B” value came out at 67% and the “MDCK-MDR1: % Recov B-A” value was determined as 42%.

For `CN(c1nnc(-c2ccc(-c3cnn(CF)c3)cc2O)s1)[C@H]1C[C@@H]2CC[C@@H](N2)[C@H]1F` (single isomer, unassigned) [Compound E-10A], in the data set on MDR1 (setting [2]), the efflux ratio at 120 min, 5 μM is 6. Also, in the data set with MDR1 (5 μM, 120 minutes), the apparent permeability from apical to basolateral (Papp A→B) at 120 min, 5 μM worked out at 8.6 ×10⁻⁶ cm/s and the basolateral-to-apical permeability (Papp B→A) at 120 min, 5 μM was determined as 50.8 ×10⁻⁶ cm/s. In data set [1], the “MDCK-MDR1: % Recov A-B” value is recorded as 72% and the “MDCK-MDR1: % Recov B-A” value was determined as 80%.

For `COc1cc(-c2ccc(-c3nnc(N(C)[C@@H]4C[C@H]5CC[C@H](N5)[C@@H]4F)s3)c(O)c2)ccn1` (single isomer, unassigned) [Compound E-11A], in the data set on MDR1 (setting [2]), the efflux ratio at 120 min, 5 μM stood at 2. In the data set with MDR1 (5 μM, 120 minutes), the Papp A→B at 120 min, 5 μM was 4.19 ×10⁻⁶ cm/s and the Papp B→A at 120 min, 5 μM is 9.76 ×10⁻⁶ cm/s. For the same compound, in data set [1], the “MDCK-MDR1: % Recov A-B” value was 20% and the “MDCK-MDR1: % Recov B-A” value is 56%.

With `COc1cc(-c2ccc(-c3nnc(N(C)[C@H]4C[C@@H]5CC[C@@H](N5)[C@H]4F)s3)c(O)c2)ccn1` (single isomer, unassigned) [Compound E-11B], the efflux ratio at 120 min, 5 μM in the data set on MDR1 (setting [2]) was found to be 2. In the data set on MDR1 (5 μM, 120 minutes), this compound displayed a Papp A→B at 120 min, 5 μM of 3.71 ×10⁻⁶ cm/s and a Papp B→A at 120 min, 5 μM of 6.07 ×10⁻⁶ cm/s. Besides, in data set [1], the “MDCK-MDR1: % Recov A-B” value came to 17% and the “MDCK-MDR1: % Recov B-A” value stood at 60%.

Take `CN(c1nnc(-c2ccc(-c3ccn(CF)c(=O)c3)cc2O)s1)[C@@H]1C[C@H]2CC[C@H](N2)[C@@H]1F` (single isomer, unassigned) [Compound E-15A]: in the data set on MDR1 (setting [2]), the efflux ratio at 120 min, 5 μM worked out at 40. In the data set on MDR1 (5 μM, 120 minutes), this compound gave a Papp A→B at 120 min, 5 μM of 1.39 ×10⁻⁶ cm/s and a Papp B→A at 120 min, 5 μM of 55.6 ×10⁻⁶ cm/s. In data set [1], the “MDCK-MDR1: % Recov A-B” value is 82% and the “MDCK-MDR1: % Recov B-A” value is reported as 96%.

In the case of `CN(c1nnc(-c2ccc(-c3cn[nH]c3)cc2O)s1)[C@@H]1C[C@H]2CC[C@@H]([C@@H]1F)N2C` (single isomer, unassigned) [Compound E-23B], the efflux ratio at 120 min, 5 μM in the data set on MDR1 (setting [2]) was 7. For the same compound, in the data set with MDR1 (5 μM, 120 minutes), the Papp A→B at 120 min, 5 μM amounted to 5.69 ×10⁻⁶ cm/s and the Papp B→A at 120 min, 5 μM came out at 39 ×10⁻⁶ cm/s. Besides, in data set [1], the “MDCK-MDR1: % Recov A-B” value is 83% and the “MDCK-MDR1: % Recov B-A” value came to 89%.

For the compound `CN(c1nnc(-c2cc(F)c(-c3cn[nH]c3)cc2O)s1)[C@H]1C[C@@H]2CC[C@H]([C@H]1F)N2C` (single isomer, unassigned) [Compound E-24A], the efflux ratio at 120 min, 5 μM in the data set on MDR1 (setting [2]) was 6. Further, in the data set on MDR1 (5 μM, 120 minutes), the Papp A→B at 120 min, 5 μM came out at 5.07 ×10⁻⁶ cm/s and the Papp B→A at 120 min, 5 μM was found to be 30.8 ×10⁻⁶ cm/s. For the same compound, in data set [1], the “MDCK-MDR1: % Recov A-B” value is on record as 57% and the “MDCK-MDR1: % Recov B-A” value was determined as 74%.

Take `CN(c1nnc(-c2cc(F)c(-c3cn[nH]c3)cc2O)s1)[C@@H]1C[C@H]2CC[C@@H]([C@@H]1F)N2C` (single isomer, unassigned) [Compound E-24B]: the efflux ratio at 120 min, 5 μM with MDR1 (setting [2]) was 7. Moreover, in the data set with MDR1 (5 μM, 120 minutes), the Papp A→B at 120 min, 5 μM amounted to 4.16 ×10⁻⁶ cm/s and the Papp B→A at 120 min, 5 μM is 29.4 ×10⁻⁶ cm/s. For the same compound, in data set [1], the “MDCK-MDR1: % Recov A-B” value is listed as 59% and the “MDCK-MDR1: % Recov B-A” value was found to be 82%.

In the case of `CN(c1nnc(-c2ccc(-c3cnn(C)c3)cc2O)s1)[C@H]1C[C@@H]2CC[C@H]([C@H]1F)N2C` (single isomer, unassigned) [Compound E-25A], the efflux ratio at 120 min, 5 μM with MDR1 (setting [2]) is 4. In the data set on MDR1 (5 μM, 120 minutes), this compound had a Papp A→B at 120 min, 5 μM of 8.7 ×10⁻⁶ cm/s and a basolateral-to-apical permeability (Papp B→A) at 120 min, 5 μM of 32 ×10⁻⁶ cm/s. In data set [1], the “MDCK-MDR1: % Recov A-B” value was determined as 70% and the “MDCK-MDR1: % Recov B-A” value is reported as 82%.

Regarding `CN(c1nnc(-c2ccc(-c3cnn(C)c3)cc2O)s1)[C@@H]1C[C@H]2CC[C@@H]([C@@H]1F)N2C` (single isomer, unassigned) [Compound E-25B], the efflux ratio at 120 min, 5 μM in the data set with MDR1 (setting [2]) turned out to be 3. For the same compound, in the data set on MDR1 (5 μM, 120 minutes), the Papp A→B at 120 min, 5 μM worked out at 7.16 ×10⁻⁶ cm/s and the Papp B→A at 120 min, 5 μM came to 22.7 ×10⁻⁶ cm/s. In data set [1], the “MDCK-MDR1: % Recov A-B” value turned out to be 67% and the “MDCK-MDR1: % Recov B-A” value is on record as 83%.

For the origin of these results see patent publication US20230069804A1, “METHODS AND COMPOSITIONS FOR MODULATING SPLICING” (SkyHawk Therapeutics, Inc., priority 2019, published 2023).
